Experimental findings from publication PMC10887214 (Biomedicines, 2024) are described below.

The test system of one assay is chimeric CB1/2 receptor. Briefly: Two-electrode voltage-clamp, chimeric CB1/2-GIRK1/GIRK2-RGS4 coupling system expressed in oocytes. The conditions noted are these: WIN55,212-2 concentration–response. (Two-electrode voltage clamp is typically applied to oocytes expressing channels or transporters.)
Assay [1] deals with C57BL/6J mice. Briefly: Morris Water Maze (MWM). The class given is in vivo, mouse. The conditions noted are these: i.p., WIN 0.5 mg/kg. As to the method:
(§1) Animal housing. Forty-eight Male C57BL/6J mice were purchased from Janvier Labs (Le Genest-Saint-Isle, France) and were time-specifically housed in a 12 h light-dark cycle (lights on at 7 am), with ad libitum water and food in conditioned rooms (22 °C, humidity ~60%).
(§2) Behavior assays. All mice were subjected to a behavioral test battery that consisted of several general performance tasks of locomotor activity, exploratory and anxiety-like behavior, and learning and memory. Mice were divided into four groups: Vehicle, OS (2 mg/kg), WIN55 (0.5 mg/kg), or OS + WIN. Each group consisted of 7–14 mice that received two i.p injections before each test, with a 10 min interval between each injection. Veh + Veh were injected with PBS. Veh + WIN were injected with PBS and WIN55. Veh + OS were injected with PBS and OS. OS + WIN were injected with OS and WIN55. PBS was used as vehicle as it was used for dilution of drugs. Tests were performed in the order described below after 10 min of the last injection, with a 24 h interval between each test.
Morris Water Maze (MWM): MWM [32] was used to assess the effects of OS, WIN, and OS + WIN in memory one day after the EPM test. MWM is a gold standard test to assess learning and memory consisting of 10 days of training and two probe trials in a pool with water at a temperature of 26 °C, with one submersed platform invisible to mice. Each mouse could try to find the platform for 100 s, four times per day, with an inter-trial interval of 15–30 min. In each trial, animals were released randomly from each of the four starting positions. This protocol of training was repeated for ten days (training sessions). The platform was removed on the 6th and 11th days, and the animals were left free to swim for 100 s (probe trials). Right after the first probe trial (day 6), animals were trained again with the platform at the same place. During the training sessions, the mean latency to find the platform for the session was calculated for each animal as the average of the four trials of the day. During the probe trials, the pool was divided into four equal virtual quadrants, and the time spent in the target quadrant (TQ) (i.e., the quadrant where the platform was located during the training sessions) was assessed as a measure of memory retention. For this test, we used Veh (n = 9), OS (n = 8), WIN (n = 8), OS + WIN (n = 14).

The test system of assay [2] is C57BL/6J mice. Briefly: Open Field (OF). The class given is in vivo, mouse. The note with it: i.p., WIN 0.5 mg/kg. The protocol:
as §1, §2
Open Field (OF): One day after the cage activity test, mice were tested in the OF paradigm. The OF aimed to test the OS, WIN, and OS + WIN effect on animal locomotion and exploratory behavior. Animals were placed in the test room one hour before starting the test. For the OF, animals were placed in a plexiglass box (60 × 60 × 60 cm) divided into three zones (center, periphery, and corners) for 10 min and left free to explore. Total distance and time in zones were counted. Here, more time in the center meant an anxiolytic effect, and a higher distance walking meant an increase in locomotor activity. For this test, we used Veh (n = 8), OS (n = 10), WIN (n = 7), OS + WIN (n = 8).

The test system of assay [3] is C57BL/6J mice. Briefly: Home cage activity test. It counts as in vivo, mouse. The note with it: i.p., OS 2 mg/kg, WIN 0.5 mg/kg, 21 h. As to the method:
as §1, §2
Cage activity assessment: At P60, animals were moved to the cage activity room for one hour before injections for habituation.. The cage activity assessment consists of placing the mice in a transparent box which is placed between three infrared sensors (two on the cage’s side and one in its front) that count how many times the mice cross the infrared beams. The times of beams crossed in each 30 min were counted over a period of 24 h and used as a locomotor activity measurement. In addition, we also compared the total number of beams crossed during the day and night period. For this test, we used Veh (n = 10), OS (n = 9), WIN (n = 11), OS + WIN (n = 8).

Consider `Cc1c(C(=O)c2cccc3ccccc23)c2cccc3c2n1[C@H](CN1CCOCC1)CO3` [WIN55,212-2, reference compound], for which the Receptor activation entry in the assay with chimeric CB1/2 receptor is listed as “activated by WIN55,212-2 in a concentration-dependent manner”. Also, the “Time to find the platform in training sessions vs control” value in the assay with C57BL/6J mice [1] (OS 2 mg/kg, days 3, 4, 5, 6 and 8) was “performed significantly worse than the control”. In addition, the “Time spent in the target quadrant (TQ), first probe trial” value with C57BL/6J mice [1] was ~ 25%. In addition, the “Total distance walked in open field (locomotion)” value in the assay on C57BL/6J mice [2] (OS 2 mg/kg, 10 min test) was “neither OS nor WIN affected locomotion”. Also, in the assay on C57BL/6J mice [2], the “Time spent in the periphery of open field compared to the control” value is “spent less time in the periphery”. For the same compound, in the assay on C57BL/6J mice [3], the “Cage activity (beam crossings) 2 h after the beginning of night phase” value is given as “did not change the activity”.
